Test results from US20250073234A1, “COMBINATION THERAPIES INCLUDING PARP1 INHIBITORS” (Cornell University, priority 2022, published 2025).

What was measured:
[1] = test system: PARP-1; test: Poly(ADP-ribosyl)ation in WPMY-1 cells (immunoblot, immunoprecipitation); assay type: cell-based, human; details: added to lactate-treated cells, 48 h
Description: Cells for protein analysis were lysed in RIPA buffer (20 mM Tris-HCl, […], 2 mM EDTA, 1% Triton-X, 10% glycerol, 0.1% SDS, and 0.5% sodium deoxycholate) with phosphatase and protease inhibitors. For immunoprecipitations, cells were lysed in IP lysis buffer (100 mM NaCl, 25 mM Tris, 1% Triton-X, 10% glycerol, with phosphatase and protease inhibitors) and immunoprecipitated with 25 μl of 50% slurry of protein […] beads (Bioworld). Immunoprecipitates were washed three times with lysis buffer, once with high salt (500 mM NaCl), and once more with lysis buffer. Protein concentration in lysates was determined by using Protein Assay Kit (Bio-Rad). Cell extracts and immunoprecipitated proteins were denatured, subjected to SDS-PAGE, transferred to PVDF membranes (GE Healthcare). After blocking with 5% nonfat dry milk in Tris-buffered saline and 0.1% Tween (TBS-T), the membranes were incubated with the specific antibodies (as listed in Key Resources Table) overnight at 4° C. After 2 hours incubation with the appropriate horseradish peroxidase-conjugated antibodies, the immune complexes were detected by chemiluminescence (Thermo Scientific) or Near-infrared fluorescence (LI-COR).

[2] = test system: PC3 + WPMY-1 tumors; test: Subcutaneous xenograft co-implantation of PC3 and WPMY-1 cells in NSG mice; assay type: in vivo, mouse; details: Olaparib 40 mg/kg i.p. twice a week, 2 weeks
Description: For mouse xenografts using PC3 PCa cells and sgC or sgAP-1 WPMY-1 stromal cells. 7 weeks old NSG mice were surgical castrated and let androgen levels drop for 10 days. Cells were trypsinized washed two times in PBS and resuspend in DMEN. 1×10^6 PC3 and 1×10^6 sgC or sgAP1-A WPMY-1 for each mouse were resuspended in 100 μl DMEM: Matrigel (1:1) and injected subcutaneously into both flanks of immunocompromised NSG mice (PC3+sgC WPMY-1 n=4; PC3+sgAP-1 WPMY-1 n=4). Tumors were allowed to grow for 1 month. Mice were euthanized and tumors were collected and analyzed histologically. For Olaparib treatment in mouse xenografts. PC3 PCa cells and WPMY-1 stromal cells were trypsinized washed two times in PBS and resuspend in DMEN. 1×10^6 PC3 and 1×10^6 WPMY-1 for each mouse were resuspended in 100 μl DMEM: Matrigel (1:1) and injected subcutaneously into both flanks of immunocompromised NSG mice. Tumors were allowed to grow for 14 days, and mouse were randomly divided to receive vehicle, n=10, Olaparib (40 mg/kg, 2 days each week, i.p.), n=10 or Olaparib (40 mg/kg, 2 days each week, i.p.)+_PEGPH20 (0.0375 mg/Kg, 2 days each week, retroorbital injection) n=10. Tumors were measured twice a week. Mice were euthanized 14 days after the initiation of the treatment and tumors were collected and analyzed histologically. For Olaparib treatment in mice, 13 weeks-old male TRAMP^+, n=18, were randomly distributed to receive vehicle, n=9, or Olaparib (40 mg/kg/, 5 days each week, i.p.), n=9. Mice were euthanized 1 month after the initiation of the treatment. Prostate and other organs were collected and analyzed histologically.
Tissues from indicated mice were isolated, fixed in zinc buffered formalin overnight at 4° C., dehydrated, and embedded in paraffin. Sections (5 μm) were stained with hematoxylin and eosin (H&E). For immunohistochemistry, sections were deparaffinized, rehydrated, and then treated for antigen retrieval. […] Stained sections were analyzed with a Zeiss light microscope supplemented with Zen 3.3 Bule edition software.

[3] = test system: WPMY-1 cells; test: ATAC-seq chromatin accessibility in WPMY-1 cells; assay type: cell-based, human; details: Olaparib-treated WPMY-1 cells, 96 h
Description: The cell pellet was resuspended in 50 μl lysis buffer and then spun down 500×g for 10 minutes at 4° C. The nuclei pellet was resuspended into 50 μl transposition reaction mixture containing Tn5 transposase from Nextera DNA Library Prep Kit (Illumina) and incubated at 37° C. for 30 minutes. Then the transposase-associated DNA was purified using MinElute PCR purification kit (QIAGEN). To amplify the library, the DNA was first amplified for 5 cycles using indexing primer from Nextera kit and NEBNext High-Fidelity 2×PCR master mix. To reduce the PCR amplification bias, 5 μl of amplified DNA after the first 5 cycles was used to do qPCR of 20 cycles to decide the number of cycles for the second round of PCR. Usually, the maximum cycle of the second round of PCR is 5 cycles. Then the total amplified DNA was size selected to fragments less than 800 bp using SPRI beads. Quantification of the ATAC-seq library was done with QuBit. The size of the pooled library was examined by TapeStation. Barcoded ATAC-seq libraries were pooled and paired end sequenced (sX75) on the Illumina NextSeq 500 using the High output V2.5 kit (Illumina Inc., San Diego, CA).
Peaks were annotated with ChipSeeker R package. […].

[4] = test system: PC3 cells; test: Click-iT EdU proliferation of PC3 cells treated with CM from WPMY-1 cells; assay type: cell-based, human; details: CM from Olaparib-treated WPMY-1, 24 h
Description: WPMY-1 cells were cultured in DMEN containing 10% FBS (basal conditions) or 10% charcoal stripped FBS (ADT conditions), then the cells were treated with vehicle (DMSO), Olaparib 10 μM, Olaparib 10 μM+PEGPH20 2.5 μg/ml for 96 hours, refreshing media and stimuli at 48 hours, conditioned media (CM) was generated by collecting supernatant on day 4. PC3 cells were seeded in a black-walled well (Thermo Fisher) and serum starved overnight. CM from WPMY-1 cells was added to PC3 for 24 h. PC3 were exposed to EdU incorporation for the last 2 hours. Proliferating cells were detected using Click-iT EdU Alexa fluor 488 (Thermo Fisher) following the manufacturer's instructions. Pictures were taken using EVOS M5000 Imaging System and EdU positive were measured using Fiji (Schindelin et al., 2012).

[5] = test system: bone marrow stromal cells; test: qPCR in mouse bone marrow stromal cells; assay type: cell-based
Description: Total RNA from mouse tissues, cells and cultured organoids was extracted using the TRIZOL reagent (Invitrogen) and the RNeasy Mini Kit (QIAGEN), followed by DNase treatment. After quantification using a Nanodrop 1000 spectrophotometer (Thermo Scientific), RNA was either processed for RNA-seq or reverse-transcribed using random primers and MultiScribe Reverse Transcriptase (Applied Biosystems). Gene expression was analyzed by amplifying 20 ng of the complementary DNA using the CFX96 Real Time PCR Detection System with SYBR Green Master Mix (BioRad) and primers described in Table S1. The amplification parameters were set at 95° C. for 30 seconds, 58° C. for 30 seconds, and 72° C. for 30 seconds (40 cycles total). Gene expression values for each sample were normalized to the 18s RNA.

Row | SMILES | poly(ADP-ribosyl)ation of c-JUN and c-FOS in lactate-treated cells [1] | desmoplastic response (collagen, HA, aSMA, p62) [2] | tumor growth (weight, volume) [2] | chromatin accessibility [3] | PC3 proliferation (EdU positive cells) [4] | markers of stromal activation (Acta2, Has2) ([5]; cells isolated from in vivo treated mice, 40 mg/kg) | markers of TGFβ family (Tgfb3, Tgfb2) and Has3 ([5]; in vitro, Olaparib 10 μM, 96 h)
1 | NC(=O)c1ccc[n+]([C@@H]2O[C@H](COP(=O)([O-])OP(=O)(O)OC[C@H]3O[C@@H](n4cnc5c(N)ncnc54)[C@H](O)[C@@H]3O)[C@@H](O)[C@H]2O)c1 [NAD^+] | rescued the poly(ADP-ribosyl) ation of both transcription factors | – | – | – | – | – | –
2 | O=C(c1cc(Cc2n[nH]c(=O)c3ccccc23)ccc1F)N1CCN(C(=O)C2CC2)CC1 [Olaparib] | – | strong desmoplastic response | efficiently reduced tumor growth | strong decrease in chromatin accessibility across the genome | increased PC3 proliferation | enhanced expression of markers of stromal activation | increased expression of markers of TGFβ family
